Laboratory results as given in publication PMC3630091, “A Mechanistic Paradigm for Broad-Spectrum Antivirals that Target Virus-Cell Fusion” (PLoS Pathogens, 2013).
Read-outs that look alike come from different tables or passages of the source.

Assays:
HIV = test: microbe, parasite or virus in culture; format: cell-based; settings: Human immunodeficiency virus 1, 10 min
NDV = test: microbe, parasite or virus in culture; format: cell-based, Newcastle disease virus; settings: avian paramyxovirus 1, 10 min
HSV = test: microbe, parasite or virus in culture; format: cell-based, Herpes simplex virus-1; settings: Human alphaherpesvirus 1, 10 min
[1] = Absorbance spectra / UV-visible spectra integration; format: physicochemical; settings: for Abs Max (λmax): 100 µM in DMSO; for AUC (400-750 nm): integrated absorption divided by concentration, normalized relative to LJ001 (LJ001 = 100)
[2] = Singlet oxygen quantum yield measurements; format: physicochemical; settings: for 1O2 QY 355 nm: in CD2Cl2, excitation 355 nm; for 1O2 QY 355 nm / 1O2 QY 532 nm: error is one standard deviation; for 1O2 QY 532 nm: in CD2Cl2, excitation 532 nm
[3] = Singlet oxygen quenching measurements; format: physicochemical; settings: 355 nm with C60 as external sensitizer; error is one standard deviation
HIV-1JR-CSF = format: cell-based
RVFV ZH501 = format: in vivo, Balb/c mice
enveloped viruses [4] = format: cell-based
in vitro = settings: human
[5] = Membrane partition into POPC LUV (fluorescence); settings: for IL / Iw: POPC LUV, fluorescence intensity ratio from curve fitting
[6] = Membrane partition into HIV membrane-like mixture LUV (fluorescence); settings: for IL / Iw: HIV-like mixture LUV, fluorescence intensity ratio from curve fitting
EBOV = test: microbe, parasite or virus in culture; format: cell-based, Ebola Zaire; settings: Zaire ebolavirus, 10 min, read-out: IC50 EBOV
H1N1 = test: microbe, parasite or virus in culture; format: cell-based, Influenza A A/PR/8/34 (H1N1); settings: read-out: IC50 H1N1
NiV = test: microbe, parasite or virus in culture; format: cell-based, Nipah virus Malaysia
HeV = test: microbe, parasite or virus in culture; format: cell-based, Hendra virus; settings: Henipavirus hendraense, 10 min, read-out: IC50 HeV
RVFV = test: microbe, parasite or virus in culture; format: cell-based, Rift Valley fever MP-12 (vaccine strain); settings: Rift Valley fever virus, 10 min, read-out: IC50 RVFV
SFV = test: microbe, parasite or virus in culture; format: cell-based; settings: Semliki Forest virus, BHK, 10 min, read-out: IC50 SFV
CMV = test: microbe, parasite or virus in culture; format: cell-based, Cytomegalovirus (strain T3259); settings: Human betaherpesvirus 5, 10 min, read-out: IC50 CMV, 10 min white light exposure of treated virus
VSV = test: microbe, parasite or virus in culture; format: cell-based; settings: Vesicular stomatitis virus, 10 min, read-out: IC50 VSV
RABV = test: microbe, parasite or virus in culture; format: cell-based; settings: Lyssavirus rabies, 10 min, read-out: IC50 RABV
[7] = Acrylamide quenching in POPC vesicles; format: physicochemical; settings: >50-fold molar excess of lipid; 3 mM POPC vesicles
[8] = system: influenza virus A (A/PR/8/34 H1N1); settings: 5 µM, light 1 h
[9] = Clinical observations after single dose in PK study; format: in vivo, female Balb/c mice
Procedure: Dose administration. […] These mice were replaced and the dose level was reduced to 5 mg/kg. […] Hypoactivity was the only clinical observation noted in some of the mice treated with the 3 test articles at 10 and 100 mg/kg po. […] These animals were replaced and administered with the lower ip dose level of 1.25 mg/kg and underwent blood collections. Mice received single ip doses of 1.25 mg/kg (JL109 and JL118) or 5 mg/kg (JL122) and po doses of 10 mg/kg (JL109, JL118, JL122), 50 mg/kg (JL109, JL118), or 100 mg/kg (JL109, JL118, JL122).

[10] = system: VSV-ΔG-rluc pseudotyped with NiV envelope glycoproteins, F and G
enveloped viruses [11] = system: enveloped viruses; parameters: method as in PMID 20133606; settings: non-cytotoxic concentrations; read-out: IC50, entry of numerous enveloped viruses; cited from earlier work
[12] = reference sensitizer value; cited from earlier work
[13] = read-out: IC50 ± SD (nM) (N=x) HIV
[14] = read-out: IC50 ± SD (nM) (N=x) NDV
[15] = read-out: IC50 ± SD (nM) (N=x) HSV

SMILES: CCN1C(=S)O/C(=C\c2ccc(-c3c(OC)cc(OC)cc3OC)o2)C1=S [JL122, (Z)-3-ethyl-5-((5-(2,4,6-trimethoxyphenyl)furan-2-yl)methylene)oxazolidine-2,4-dithione]
- IC50 (HIV; [13]): 64 ± 41.5 nM
- IC50 (NDV; [14]): 0.9 ± 0.8 nM
- IC50 (HSV; [15]): 2.4 ± 1.4 nM
- Abs Max (λmax) [1]: 545 nm
- AUC (400-750 nm) [1]: 153
- total integrated absorption (AUC), times that of LJ001 ([1]; λ = 400 to 750 nm): 1.53 times
- QY at 355 nm, times higher than LJ001 ([2]; 355 nm): about 2 times
- 1O2 QY 355 nm [2]: 0.43 ± 0.04
- 1O2 QY 532 nm [2]: 0.23 ± 0.02
- kT × 10-7 [3]: 1.970 ± 0.050 M-1s-1
- antiviral potency at physiological hematocrits (HIV-1JR-CSF): maintained their antiviral potency
- time-to-death / survival compared to untreated controls (RVFV ZH501; 20 pfu RVFV ZH501 IP, IP once a day for 7 days from 1 h post-challenge, JL118 1.25 mg/kg, JL122 and JL103 10 mg/kg): moderate but significant delay in time-to-death
- Median survival (RVFV ZH501; 50 pfu RVFV ZH501 IP, 10 mg/kg IP at 1, 12, 24 and 48 h post-challenge, n = 5): 6 days
- improved in vitro potency compared to LJ001 (enveloped viruses [4]): 10-100 fold
- CC50 (in vitro): 10300 nM
- MRT last (Pharmacokinetics in mice; female, Balb/c, mouse, in vivo): 4.7 to 7 h
- Tmax (Pharmacokinetics in mice; female, Balb/c, mouse, in vivo): 0.25 to 1 h
- AUC(0-t) (Pharmacokinetics in mice; female, Balb/c, mouse, in vivo, ip, 5 mg/kg): 569 ng·h/mL
- Cmax (Pharmacokinetics in mice; female, Balb/c, mouse, in vivo, ip, 5 mg/kg, ip 5 mg/kg): 122 ng/mL
- AUC(0-t) (Pharmacokinetics in mice; female, Balb/c, mouse, in vivo, ip, 10 mg/kg): 924 ng·h/mL
- Cmax (Pharmacokinetics in mice; female, Balb/c, mouse, in vivo, ip, 10 mg/kg, ip 10 mg/kg): 132 ng/mL
- AUC(0-t) (Pharmacokinetics in mice; female, Balb/c, mouse, in vivo, po, 10 mg/kg): 232 ng·h/mL
- Cmax (Pharmacokinetics in mice; female, Balb/c, mouse, in vivo, po, 50 mg/kg, po 50 mg/kg): 122 ng/mL
- AUC(0-t) (Pharmacokinetics in mice; female, Balb/c, mouse, in vivo, po, 100 mg/kg): 1270 ng·h/mL
- improvements in relevant pharmacokinetic (PK) parameters compared to LJ001 (Pharmacokinetics in mice; half-life, AUC, bioavailability, clearance): > 10 fold
- Kp at 10 min, 50 µM [5]: 1130
- IL / Iw [5]: 143.8
- Kp at 10 min, 50 µM [6]: 267
- IL / Iw [6]: 613.7

SMILES: C=CCN1C(=O)/C(=C/c2ccc(-c3ccccc3)o2)SC1=S [LJ001, (Z)-3-allyl-5-((5-phenylfuran-2-yl)methylene)-2-thioxothiazolidin-4-one]
- IC50 (HIV; read-out: IC50 HIV): 133 nM
- IC50 (HIV; [13]): 182 ± 244 nM
- IC50 (NDV; read-out: IC50 NDV): 95 nM
- IC50 (NDV; [14]): 181 ± 105 nM
- IC50 (EBOV): 900 nM
- IC50 (H1N1; Influenza A virus, H1N1, 10 min): 25.7 nM
- IC50 (H1N1): 26 nM
- IC50 (NiV; Henipavirus nipahense, 10 min, read-out: IC50 NiV, 10 min white light exposure of treated virus): 47.5 nM
- IC50 (NiV; read-out: IC50 NiV, 10 min white light exposure of treated virus): 48 nM
- IC50 (HeV): 18 nM
- IC50 (RVFV): 20 nM
- IC50 (SFV): 537 nM
- IC50 (HSV; read-out: IC50 HSV): 20 nM
- IC50 (HSV; [15]): 35.3 ± 48.3 nM
- IC50 (CMV): 147 nM
- IC50 (VSV): 298 nM
- IC50 (RABV): 5290 nM
- fraction protected from the water-soluble quencher (acrylamide) [7]: over 85%
- Abs Max (λmax) [1]: 455 nm
- AUC (400-750 nm) [1]: 100
- 1O2 QY 355 nm [2]: 0.20 ± 0.02
- 1O2 QY 532 nm [2]: 0
- kT × 10-7 [3]: 0.189 ± 0.010 M-1s-1
- increase in the number of oxidized forms of unsaturated phospholipids compared to LJ025-treated samples [8]: up to 300 fold
- clinical observations ([9]; single dose 5 mg/kg ip): appeared normal
- clinical observations ([9]; single dose 10 mg/kg ip): 2 were sacrificed in moribund condition and 1 was found dead
- t1/2 (inhibition half-life, time-of-addition) [10]: 1.12 h
- IC50 (enveloped viruses [11]): ≤ 500 nM
- CC50 (in vitro): 11900 nM
- clearance (Pharmacokinetics in mice; female, Balb/c, mouse, in vivo): ~700 mL/min/kg
- half-life (Pharmacokinetics in mice; female, Balb/c, mouse, in vivo): 0.2 h
- time post-dose up to which plasma levels were detectable (Pharmacokinetics in mice; ip 5 mg/kg): ≤ 0.5 h
- time post-dose up to which plasma levels were detectable (Pharmacokinetics in mice; iv 10 mg/kg): up to 1 hr
- IL / Iw [5]: 2.29
- Kp at 10 min, 50 µM [6]: 5190
- IL / Iw [6]: 2.41

SMILES: C=CCN1C(=O)S/C(=C\c2ccc(-c3ccccc3)o2)C1=O [LJ025, (Z)-3-allyl-5-((5-phenylfuran-2-yl)methylene)thiazolidine-2,4-dione]
- fraction protected from the water-soluble quencher (acrylamide) [7]: over 85%
- Abs Max (λmax) [1]: 405 nm
- AUC (400-750 nm) [1]: < 100
- 1O2 QY 355 nm [2]: 0
- kT × 10-7 [3]: 0.191 ± 0.010 M-1s-1
- melting point: 149 to 151 °C
- CC50 (in vitro): > 50000 nM
- IL / Iw [5]: 2.79
- IL / Iw [6]: 3.60

SMILES: O=C1OC2(c3cc(I)c(O)c(I)c3Oc3c2cc(I)c(O)c3I)c2c(Cl)c(Cl)c(Cl)c(Cl)c21 [RB, Rose Bengal]
- 1O2 QY of reference compound at 532 nm [12]: 0.79

SMILES: C1=Cc2nc1c(-c1ccccc1)c1ccc([nH]1)c(-c1ccccc1)c1nc(c(-c3ccccc3)c3ccc([nH]3)c2-c2ccccc2)C=C1 [TPP]
- 1O2 QY of reference compound at 532 nm [12]: 0.62
